Patent publication US9334212B2, “Compounds and compositions” (Colgate-Palmolive Company, priority 2010, dated 2016)
Values after ≈ are worked out from the molar mass of the structure shown. Read-outs that look alike come from different tables or passages of the source.

Key:
Type in all cases: cell-based
[1] = tested on: Corynebacterium minutissimum (C. minutissimum); assay: Minimum Inhibitory Concentration (MIC), skin bacteria; details: for MIC: Corynebacterium minutissimum, read-out: Minimum Inhibitory Concentration
Protocol: (§1) The compound of Formula (II) was evaluated for its antibacterial efficacy against representative skin bacteria such as Staphylococcus aureus (S. aureus), Staphylococcus epidermidis (S. epidermidis), Corynebacterium minutissimum (C. minutissimum), Corynebacterium xerosis (C. xerosis) and Escherichia coli (E. coli). Zone of inhibition (ZOI), Minimum Inhibitory Concentration (MIC), and a Short Interval Kill Test (SIKT) were all performed, and the results are described in Tables 2-4 (below).
(§2) MIC against four common skin pathogens was evaluated for the compound of Formula (II), using the following method: A two-fold dilution of the compound of Formula (II) was prepared in a 96 well plate and a constant amount of bacteria added in each well. After 18-24 hours of incubation, bacterial growth was measured by using a Spectrophotometric Micro-plate Reader and the MIC values were determined.
(§3) The antibacterial efficacy of the compound of Formula (II) was measured in comparison to triclosan, using various tests. The results are provided below in Tables 5 and 6.

[2] = tested on: Staphylococcus aureus (S. aureus); assay: as above; details: for MIC: Staphylococcus aureus, read-out: Minimum Inhibitory Concentration
Protocol: as §1, §2, §3

[3] = tested on: Escherichia coli (E. coli); assay: as above
Protocol: as §1, §2, §3

[4] = tested on: Corynebacterium minutissimum (C. minutissimum); assay: Zone of Inhibition Test (ZOI)
Protocol: as §1
(§4) 20 μL of each solution was placed on separate filter disks and air dried for 20 minutes. After 20 minutes of drying, the coated disks were placed in the bacterial lawn and plates were incubated at 37° C. for 18 hours, followed by measurement of ZOI.
as §3

[5] = tested on: Staphylococcus aureus (S. aureus); assay: Zone of Inhibition Test (ZOI)
Protocol: as §1, §4, §3

[6] = tested on: Escherichia coli (E. coli); assay: Zone of Inhibition Test (ZOI); details: Example 4
Protocol: as §1
as §4, with “The compound of Formula (II) was dissolved in polyethylene glycol (PEG 300), or in 100% ethanol at 0.5% concentration. 20 μL” for “20 μL”
as §3

[7] = tested on: S. mutans; assay: Minimum Inhibitory Concentration, oral pathogens; details: Streptococcus mutans, read-out: Minimum Inhibitory Concentration
Description: (§5) Table 1 (below) describes the antibacterial efficacy of an exemplary compound of the present invention against common oral pathogens, A. viscosus and S. mutans.

[8] = tested on: A. viscosus; assay: Minimum Inhibitory Concentration, oral pathogens; details: Actinomyces viscosus, read-out: Minimum Inhibitory Concentration
Description: as §5

[9] = tested on: Corynebacterium xerosis (C. xerosis); assay: Zone of Inhibition Test (ZOI); details: 37° C. 18 hours
Protocol: as §1
as §4, with “The compound of Formula (II) was dissolved in polyethylene glycol (PEG 300), or in 100% ethanol at 0.5% concentration. 20 μL” for “20 μL”

[10] = tested on: Staphylococcus epidermidis (S. epidermidis); assay: Zone of Inhibition Test (ZOI); details: S. epiderm., 37° C. 18 hours
Protocol: as §1
as §4, with “The compound of Formula (II) was dissolved in polyethylene glycol (PEG 300), or in 100% ethanol at 0.5% concentration. 20 μL” for “20 μL”

[11] = tested on: Corynebacterium xerosis (C. xerosis); assay: Minimum Inhibitory Concentration (MIC), skin bacteria; details: read-out: Minimum Inhibitory Concentration
Protocol: as §1, §2

[12] = tested on: Staphylococcus epidermidis (S. epidermidis); assay: as above; details: for MIC: Staphylococcus epidermidis, read-out: Minimum Inhibitory Concentration
Protocol: as §1, §2

[13] = tested on: E. coli; assay: Rapid Agar Plate Assay (RAPA); details: vs tap water washed plates
Protocol: (§6) The compound of Formula (II) was mixed with a base bar soap chip and tested for any residual antibacterial activity against S. aureus and E. coli by a rapid agar plate assay (RAPA). Briefly, the method involves washing TSA plates with the soap samples for 10 seconds, lathering for another 40 seconds and finally rinsing for 10 seconds. After air drying for 30 minutes, 100 μL of freshly prepared bacterial suspension (density was adjusted to 0.1 OD at 620 nm) was applied on the treated plates and then plates were incubated at 37° C. for about 18 hours. TSA plates washed with normal tap water were used as negative control. Next day, bacterial colonies were counted and converted to log 10 and the log reductions as a result of washing with samples were calculated.

[14] = tested on: S. aureus; assay: Rapid Agar Plate Assay (RAPA); details: for Log reduction in Bacterial Count: vs tap water washed plates
Protocol: as §6

[15] = tested on: bacterial suspension; assay: Short Interval Kill Test (SIKT)
Protocol: SIKT determines the kill effect of the test article at a predetermined exposure time. […] Briefly, 1.2 mL of the compound of Formula (II)+PEG 300 was transferred into a sterile test tube, to which 0.2 mL of a freshly prepared bacterial suspension (OD adjusted to 0.1 at 620 nm) was added and gently mixed. The reaction was neutralized at the 1 minute or at the 5 minute point by adding a neutralizing broth. The reaction mixture was further diluted with letheen broth in 10-fold fashion and plated on MCA (Microbial Count Agar) plates for viable bacterial count.

[16] = 0.5% in EtOH, 20 μL on filter disk, 37° C. 18 hours
[17] = 0.5% in PEG 300, 20 μL on filter disk, 37° C. 18 hours
[18] = 0.5% in EtOH, 20 μL on filter disk
[19] = 0.5% in PEG 300, 20 μL on filter disk

C=CCc1cc(Cl)c(O)c(-c2cc(CC=C)cc(Cl)c2O)c1 [Compound of Formula (II)]
MIC ([1]; C. minutissimum, 0.5% active, Example 4): 9.7 µg/mL | MIC ([1]; C. minutissimum, + EtOH, 18-24 hours incubation): 39 µg/mL | MIC ([1]; C. minutissimum, + PEG 300, 18-24 hours incubation): 9.77 µg/mL | MIC ([2]; S. aureus, 0.5% active, Example 4): 2.44 µg/mL | MIC ([2]; S. aureus, + EtOH, 18-24 hours incubation): 39 µg/mL | MIC ([2]; S. aureus, + PEG 300, 18-24 hours incubation): 19.5 µg/mL | MIC ([3]; E. coli, 0.5% active, Example 4, read-out: Minimum Inhibitory Concentration): 1250 µg/mL | Zone of Inhibition [4, 16]: 17 mm | Zone of Inhibition [4, 17]: 21 mm | Zone of Inhibition ([4]; 0.5%, Example 4): 22 mm | Zone of Inhibition [5, 16]: 13 mm | Zone of Inhibition [5, 17]: 15 mm | Zone of Inhibition ([5]; 0.5%, Example 4): 20 mm | Zone of Inhibition ([6]; 0.5%): 0 mm | MIC ([7]; S. mutans): 0.5 to 1 µg/mL | MIC ([8]; A. viscosus): 0.5 to 1 µg/mL | Zone of Inhibition [9, 18]: 14 mm | Zone of Inhibition [9, 19]: 15 mm | Zone of Inhibition [10, 18]: 15 mm | Zone of Inhibition [10, 19]: 16 mm | MIC ([11]; C. xerosis, + EtOH, 18-24 hours incubation): 156 µg/mL | MIC ([11]; C. xerosis, + PEG 300, 18-24 hours incubation): 78 µg/mL | Minimum Inhibitory Concentration ([12]; S. epiderm., + EtOH, 18-24 hours incubation): 39 ppm | MIC ([12]; S. epiderm., + PEG 300, 18-24 hours incubation): 39 µg/mL | Log reduction in Bacterial Count ([13]; 0.5% in soap chip): 0.09 log | Log reduction in Bacterial Count ([14]; 0.5% in soap chip): 0.506 log | Log reduction in Bacterial Count ([14]; 0.5% in soap chip, listed as compound of Formula (II)): 0.5 log | reduction in the growth ([14]; bar soap chip containing 0.5%): > 50% | Short Interval Kill Test kill effect ([15]; 0.5% + PEG 300, exposure time 1 minute): 65.18 | Short Interval Kill Test kill effect ([15]; 0.5% + PEG 300, exposure time 5 minute): 87.37

C=CCc1ccc(O)c(-c2cc(CC=C)ccc2O)c1 [Magnolol, magnolol]
MIC [7]: 32 µg/mL (≈ 120 µM) | MIC [8]: 32 µg/mL (≈ 120 µM)

O=C(Nc1ccc(Cl)cc1)Nc1ccc(Cl)c(Cl)c1 [TCC, reference compound]
Log reduction in Bacterial Count ([13]; 0.4% TCC bar): 0.167 log | Log reduction in Bacterial Count ([14]; 0.4% TCC bar): 2.409 log | Short Interval Kill Test kill effect ([15]; 0.5%, exposure time 1 minute): 56.54 | Short Interval Kill Test kill effect ([15]; 0.5%, exposure time 5 minute): 74.11

Oc1cc(Cl)ccc1Oc1ccc(Cl)cc1Cl [Triclosan, 5-chloro-2-(2,4-dichlorophenoxy)phenol, reference compound]
Minimum Inhibitory Concentration ([1]; C. minutissimum, 0.15% active, Example 4): 4.88 ppm | MIC [1]: 4.88 µg/mL (≈ 16.9 µM) | Minimum Inhibitory Concentration ([2]; S. aureus, 0.15% active, Example 4): <2.44 ppm | MIC [2]: < 2.44 µg/mL | MIC ([3]; read-out: Minimum Inhibitory Concentration): < 2.44 µg/mL | Zone of Inhibition ([4]; 0.15%, Example 4): 21 mm | Zone of Inhibition ([5]; 0.15%, Example 4): 50 mm | Zone of Inhibition ([6]; 0.15%): 40 mm | MIC [7]: 1 to 2 µg/mL (≈ 3.45 to 6.91 µM) | MIC [8]: 1 to 2 µg/mL (≈ 3.45 to 6.91 µM) | MIC [11]: 9.76 µg/mL (≈ 33.7 µM) | MIC [12]: < 2.44 µg/mL | Log reduction in Bacterial Count ([13]; 0.25% Triclosan bar): 2.387 log | Log reduction in Bacterial Count ([14]; 0.25% Triclosan bar): 2.409 log
